The record followed here is patent US6569878B1, “Substituted 4-amino-thiazol-2-yl compounds as cyclin-dependent kinase inhibitors” (Agouron Pharmaceuticals Inc., priority 1997, dated 2003).

pKi: −log10 of the molar value.

In one assay the target is T1, complex of human CDK4 and cyclin D3 (Homo sapiens, UniProt P11802).
T1 construct: made in house; host or cells: insect cells, co-infected with baculovirus
T1 sequence (P11802 whole entry): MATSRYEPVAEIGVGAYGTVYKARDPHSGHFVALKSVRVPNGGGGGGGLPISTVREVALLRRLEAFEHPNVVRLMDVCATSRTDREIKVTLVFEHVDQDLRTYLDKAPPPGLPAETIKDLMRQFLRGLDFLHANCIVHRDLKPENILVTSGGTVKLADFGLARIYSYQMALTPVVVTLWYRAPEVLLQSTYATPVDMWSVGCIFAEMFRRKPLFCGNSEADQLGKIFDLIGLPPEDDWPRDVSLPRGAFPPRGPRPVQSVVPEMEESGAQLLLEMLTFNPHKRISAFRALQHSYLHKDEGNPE
T1 sequence (P30281 whole entry partner): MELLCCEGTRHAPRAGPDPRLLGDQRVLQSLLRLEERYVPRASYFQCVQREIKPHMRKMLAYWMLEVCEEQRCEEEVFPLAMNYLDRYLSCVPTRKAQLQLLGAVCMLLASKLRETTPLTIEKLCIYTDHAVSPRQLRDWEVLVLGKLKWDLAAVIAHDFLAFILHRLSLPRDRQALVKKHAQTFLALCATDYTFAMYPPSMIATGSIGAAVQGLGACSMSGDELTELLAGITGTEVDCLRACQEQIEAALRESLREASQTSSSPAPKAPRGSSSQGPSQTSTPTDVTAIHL
The experiment in a line: Inhibition of CDK4/cyclin D retinoblastoma kinase activity (D-type cyclin is D3). The format is biochemical. Particulars: superscript a: D-type cyclin is D3; apparent Ki; read-out: Ki CDK 4/D. As for the experimental part:
Cyclin-dependent kinase activity was measured by quantifying the enzyme-catalyzed, time-dependent incorporation of radioactive phosphate from [^32P]ATP or [^33P]ATP into a protein substrate. […] Reactions were initiated with enzyme, incubated at 30° C., and terminated after 20 minutes by the addition of ethylenediaminetetraacetic acid (EDTA) to 250 mM. […] Radioactivity was quantified by exposing the dried membranes to a phosphorimager.
Apparent Ki values were measured by assaying enzyme activity in the presence of different inhibitor compound concentrations and subtracting the background radioactivity measured in the absence of enzyme. The kinetic parameters (kcat, Km for ATP) were measured for each enzyme under the usual assay conditions by determining the dependence of initial rates on ATP concentration. Inhibition data were fit to an equation for competitive inhibition using Kaleidagraph (Synergy Software), or were fit to an equation for competitive tight-binding inhibition using the software KineTic (BioKin, Ltd.).
Phosphorylated Rb substrate was captured by microfiltration on a nitrocellulose membrane and quantified using a phosphorimager as described above. For measurement of tight-binding inhibitors, the enzyme complex concentration was lowered to 5 nM, and the assay duration was extended to 60 minutes, during which the time-dependence of product formation was linear.
Turning to `CCN(CC)c1ccc(Nc2nc(N)c(C(=O)c3ccc([N+](=O)[O-])cc3)s2)cc1` [C(18), [4-Amino-2-(4-diethylamino-phenylamino)-thiazol-5-yl]-(4-nitro-phenyl)-methanone], the pKi was 4.89. Same read-out and setting: the figure for `N#Cc1cccc(Nc2nc(N)c(C(=O)c3ccccc3[N+](=O)[O-])s2)c1` [C(22)] is 7.17; for `COCCCNc1nc(N)c(C(=O)c2ccccc2[N+](=O)[O-])s1` [C(23), [4-Amino-2-(3-methoxy-propylamino)-thiazol-5-yl]-(2-nitro-phenyl)-methanone] it is 6.48. Turning to `Nc1nc(Nc2ccc(Sc3ncc(C(F)(F)F)cc3Cl)cc2)sc1C(=O)c1ccccc1[N+](=O)[O-]` [C(25), {4-Amino-2-[4-(2-chloro-5-trifluoromethyl-pyridin-2-yl sulfanyl)-phenylamino]-thiazol-5-yl}-(2-nitro-phenyl)-methanone], the pKi is 5.89. The same measure, in the same setting: the figure for `COC(=O)c1cccc(Nc2nc(N)c(C(=O)c3ccccc3OC)s2)c1` [C(26), Methyl 3-[4-Amino-5-(2-methoxy-benzoyl)-thiazol-2-ylamino]-benzoate] is 6.48; for `COc1ccccc1C(=O)c1sc(NCCc2ccc(Cl)cc2)nc1N` [C(27), {4-Amino-2-[2-(4-chloro-phenyl)-ethylamino]-thiazol-5-yl}-(2-methoxy-phenyl)-methanone] it is 5.99; for `Nc1nc(Nc2cccnc2)sc1C(=O)c1ccc(Cl)cc1Cl` [C(28), [4-Amino-2-(pyridin-3-ylamino)-thiazol-5-yl]-(2,4-dichloro-phenyl)-methanone] it is 6.62. On the same count and under the same terms, to `COc1ccccc1C(=O)c1sc(Nc2cccnc2)nc1N` [C(29), [4-Amino-2-(pyridin-3-ylamino)-thiazol-5-yl]-(2-methoxy-phenyl)-methanone] belongs 6.45; to `Nc1nc(Nc2cccnc2)sc1C(=O)c1ccc2ccccc2c1` [C(30), [4-Amino-2-(pyridin-3-ylamino)-thiazol-5-yl]-naphthalen-2-yl-methanone], 5.85. With `COc1ccccc1C(=O)c1sc(Nc2ccc3nc[nH]c3c2)nc1N` [C(32), [4-Amino-2-(1H-benzoimidazol-6-ylamino)-thiazol-5-yl]-(2-methoxy-phenyl)-methanone], the pKi was 7.03. Take `COc1ccc(Nc2nc(N)c(C(=O)c3[nH]cnc3C)s2)cc1` [C(40), [4-Amino-2-(4-methoxy-phenylamino)-thiazol-5-yl]-(4-methyl-1H-imidazol-5-yl)-methanone]: the pKi is 5.42. With `Cn1cccc1C(=O)c1sc(Nc2ccc3nc[nH]c3c2)nc1N` [C(43), [4-Amino-2-(1H-benzimidazol-5-ylamino)-thiazol-5-yl]-(1-methyl-1H-pyrrol-2-yl)-methanone], the pKi was 6.50. As to `CC(=O)c1ccc(Nc2nc(N)c(C(=O)c3sccc3C)s2)cc1` [C(44), 1-{4-[4-Amino-5-(3-methyl-thiophene-2-carbonyl)-thiazol-2-ylamino]-phenyl}-ethanone], the pKi is roughly 6.89. The same measure, in the same setting: the figure for `Cc1c(C(=O)c2sc(Nc3ccc(N4CCOCC4)cc3)nc2N)ncn1C` [C(77), [4-Amino-2-(4-morpholin-4-yl-phenylamino)-thiazol-5-yl]-(1,5-dimethyl-1H-imidazol-4-yl)-methanone] is 5.52; for `Nc1ccc(C(=O)c2sc(Nc3ccccc3)nc2N)cc1` [D(2), (4-Amino-phenyl)-(4-amino-2-phenylamino-thiazol-5-yl)-methanone] it is less than 5.30; for `CN(C)c1ccc(Nc2nc(N)c(C(=O)c3ccccc3N)s2)cc1` [D(3), [4-Amino-2-(4-dimethylamino-phenylamino)-thiazol-5-yl]-(2-amino-phenyl)-methanone] it is 6.42.

For the molecule `Nc1ccc(Nc2nc(N)c(C(=O)c3ccccc3)s2)cc1` [D(4), [4-Amino-2-(4-amino-phenylamino)-thiazol-5-yl]-phenyl-methanone], the pKi was 6.10. Take `Nc1nc(Nc2ccc(S(N)(=O)=O)cc2)sc1C(=O)c1ccc(C(=O)O)cc1` [E(2), 4-[4-Amino-2-(4-sulfamoyl-phenylamino)-thiazole-5-carbonyl]-benzoic Acid]: the pKi is 5.93. Still for that read-out and setting: the figure for `CN(C)c1ccc(Nc2nc(N)c(C(=O)c3ccc(F)cc3)s2)cc1` [I(7)] is roughly 5.82; for `Nc1nc(NC2CCCCC2)sc1C(=O)c1ccc(F)cc1` [I(8)] it is 5.37.

`Nc1nc(NC2CCCCC2)sc1C(=O)c1ccc([N+](=O)[O-])cc1` [I(9)]: the pKi is 5.60.

Regarding `Nc1nc(Nc2ccccc2)sc1C(=O)c1ccc(F)cc1` [I(11)], the pKi is 6.28. For the molecule `COC(=O)c1cccc(Nc2nc(N)c(C(=O)c3cccc(OC)c3)s2)c1` [I(13)], the pKi was 5.62. Still for that read-out and setting: the figure for `COC(=O)c1cccc(Nc2nc(N)c(C(=O)c3ccc4ccccc4c3)s2)c1` [I(15)] is 6.36; for `COc1cc(C(=O)c2sc(Nc3ccccc3)nc2N)cc(OC)c1OC` [I(16)] it is 5.73; for `COC(=O)c1cccc(C(=O)c2sc(Nc3cccc([N+](=O)[O-])c3)nc2N)c1` [I(17)] it is greater than 6.00. Still for that read-out and setting: to `Cc1ccc(Nc2nc(N)c(C(=O)c3ccccc3)s2)cc1` [I(23)] belongs 5.82.

Still in this assay, the particulars now being: superscript a: D-type cyclin is D3; μM; read-out: Ki CDK 4/D.
For the molecule `Nc1nc(Nc2ccc(S(N)(=O)=O)cc2)sc1C(=O)c1ccc(OC(=O)c2ccccc2)cc1` [C(39)], the Ki was greater than 100 µM. Turning to `COc1ccc(CNc2nc(N)c(C(=O)c3cc(C)sc3C)s2)cc1` [C(68), [4-Amino-2-(4-methoxy-benzylamino)-thiazol-5-yl]-(2,5-dimethylthiophen-3-yl)-methanone], the Ki is greater than 30 µM.

Turning to `COc1ccc(C(=O)c2sc(Nc3ccccc3)nc2N)cc1` [I(10)], the Ki is greater than 20 µM. The same measure, in the same setting: the figure for `COC(=O)c1cccc(Nc2nc(N)c(C(=O)c3ccc(Br)cc3)s2)c1` [I(14)] is greater than 50 µM. With `COc1ccc(C(=O)Nc2nc(N)c(C(=O)c3ccccc3[N+](=O)[O-])s2)cc1` [I(18)], the Ki is greater than 25 µM.
